In ChEMBL document CHEMBL4251697 (ACS Med Chem Lett, 2018):
Values after ≈ are worked out from the molar mass of the structure shown.

Tests used:
[1] = target: Fibroblast growth factor receptor 4 (Homo sapiens, UniProt P22455)
[2] = Aqueous equilibrium solubility of compound in pH 6.8 phosphate buffer solution incubated overnight by shake flask based high throughput assay; type: physicochemical
[3] = Thermodynamic solubility of compound in pH 6.8 phosphate buffer solution incubated overnight on shaker by shake flask based HPLC analysis; type: physicochemical; settings: read-out: Therm_solubility

Fibroblast growth factor receptor 4, sequence (P22455 whole entry): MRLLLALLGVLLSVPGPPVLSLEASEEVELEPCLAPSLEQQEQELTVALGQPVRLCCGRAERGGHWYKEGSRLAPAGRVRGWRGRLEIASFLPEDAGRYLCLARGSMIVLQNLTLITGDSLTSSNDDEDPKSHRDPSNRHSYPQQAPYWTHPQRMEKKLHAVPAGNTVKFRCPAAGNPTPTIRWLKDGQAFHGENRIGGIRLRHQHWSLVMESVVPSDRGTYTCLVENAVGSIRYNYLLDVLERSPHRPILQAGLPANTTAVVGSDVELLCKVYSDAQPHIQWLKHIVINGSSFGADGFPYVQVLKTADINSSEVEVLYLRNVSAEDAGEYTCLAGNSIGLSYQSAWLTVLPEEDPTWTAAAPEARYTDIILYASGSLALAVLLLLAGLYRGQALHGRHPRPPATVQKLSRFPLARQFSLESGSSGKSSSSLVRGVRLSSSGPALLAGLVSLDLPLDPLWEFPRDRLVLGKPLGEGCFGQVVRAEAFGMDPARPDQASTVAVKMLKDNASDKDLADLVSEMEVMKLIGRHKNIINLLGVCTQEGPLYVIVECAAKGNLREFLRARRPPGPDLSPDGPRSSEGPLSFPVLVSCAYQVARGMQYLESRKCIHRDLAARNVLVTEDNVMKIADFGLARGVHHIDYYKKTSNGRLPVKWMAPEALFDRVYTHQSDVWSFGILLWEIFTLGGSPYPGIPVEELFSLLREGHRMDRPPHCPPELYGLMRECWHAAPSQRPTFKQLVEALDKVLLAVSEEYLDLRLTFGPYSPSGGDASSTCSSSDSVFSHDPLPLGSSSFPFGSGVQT

SMILES | IC50 [1] | solubility thermodynamic [2] | solubility thermodynamic [3]
CN(C(=O)N1CCCc2ccc(C=O)nc21)c1ccc(C(F)(F)F)cn1 | > 10 µM |  | 
COCCNc1cc(NC(=O)N(CCOC)c2cccc(C=O)n2)ncc1C#N |  | > 1000 µM | 
CN(C)CCOc1cc(NC(=O)N2CCCc3ccc(C=O)nc32)ncc1C#N |  | 300 µM (≈ 118 µg/mL) | 
N#Cc1ccc(NC(=O)N2CCCc3ccc(CO)nc32)nc1 | > 10 µM |  | 
CN(C)CCOc1cc(NC(=O)N2CCCc3cccnc32)ncc1C#N |  | 173 µM (≈ 63.4 µg/mL) | 
O=Cc1ccc2c(n1)N(C(=O)Nc1ccc(C(F)(F)F)cn1)CCC2 |  | < 4 µM | 4.9 µM (≈ 1.72 µg/mL)
O=Cc1ccc2cccc(C(=O)Nc3ccc(C(F)(F)F)cn3)c2n1 |  | < 4 µM | < 2.9 µM
